Data published in patent US20240366551A1, “MIXTURES AND COMPOSITIONS COMPRISING SULFORAPHANE AND GLYCINE” (SOCIETE DES PRODUITS NESTLE S.A., priority 2021, published 2024).

Test system: Zebrafish larvae
Assay: Zebrafish larvae survival assay under hydrogen peroxide oxidative stress
Format: in vivo, zebrafish (AB strain)
Details: for larvae survived: compound 12 h before H2O2, survival after 24 h
Procedure: Zebrafish larvae provide a suitable vertebrate model for studying the oxidative stress […]. […] Survival assays were performed according to a protocol described previously^36 with some modifications. Briefly, wild-type zebrafish larvae
(AB strain, ZFIN ID: ZDB-GENO-960809-7) were used. At 3.5 days post fertilization (dpf), 24 larvae per condition were placed in a 60-mm petri dish with 5 ml of egg water (0.6 g/L Ocean sea salt, Tecniplast). Compounds of interest were directly added into the egg water for 12 h. Subsequently, compounds were removed at 4 days post fertilization (dpf4) and larvae were transferred to a 96-well plate in a volume of 200 μl fresh egg water containing 2.5 mM hydrogen peroxide (H2O2; Sigma Merck). Survival was monitored after 24 h of treatment.

Row | SMILES | larvae survived (vehicle+2.5 mM H2O2+500 μM L-glycine) | Predicted (LS) mean diff (survival, comparison 0 μM vs. treated group, 2.5 mM H2O2, 2 way ANOVA, Tukey's) | larvae survived (vehicle+2.5 mM H2O2+1 μM Sfn)
1 | NCC(=O)O [L-glycine] | ~10% | – | –
2 | C[S+]([O-])CCCCN=C=S (stereo not drawn) [Sfn, 4-methylsulfinylbutyl isothiocyanate] | – | −7.077 | ~10%
